IC50 data for 13 molecules are collected here from patent US7605165B2, “Phenylalanine derivatives” (Ajinomoto Co., Inc., priority 2002, dated 2009).

In one test the target is T1, integrin α4β7 (Homo sapiens, UniProt P13612+P26010).
T1 construct: lymphoma cell strain RPMI-8866 of human B cells, known to express integrin α4β7; endogenous in cells; host or cells: RPMI-8866, human B-cell lymphoma line
T1 sequence (P13612 34-1032): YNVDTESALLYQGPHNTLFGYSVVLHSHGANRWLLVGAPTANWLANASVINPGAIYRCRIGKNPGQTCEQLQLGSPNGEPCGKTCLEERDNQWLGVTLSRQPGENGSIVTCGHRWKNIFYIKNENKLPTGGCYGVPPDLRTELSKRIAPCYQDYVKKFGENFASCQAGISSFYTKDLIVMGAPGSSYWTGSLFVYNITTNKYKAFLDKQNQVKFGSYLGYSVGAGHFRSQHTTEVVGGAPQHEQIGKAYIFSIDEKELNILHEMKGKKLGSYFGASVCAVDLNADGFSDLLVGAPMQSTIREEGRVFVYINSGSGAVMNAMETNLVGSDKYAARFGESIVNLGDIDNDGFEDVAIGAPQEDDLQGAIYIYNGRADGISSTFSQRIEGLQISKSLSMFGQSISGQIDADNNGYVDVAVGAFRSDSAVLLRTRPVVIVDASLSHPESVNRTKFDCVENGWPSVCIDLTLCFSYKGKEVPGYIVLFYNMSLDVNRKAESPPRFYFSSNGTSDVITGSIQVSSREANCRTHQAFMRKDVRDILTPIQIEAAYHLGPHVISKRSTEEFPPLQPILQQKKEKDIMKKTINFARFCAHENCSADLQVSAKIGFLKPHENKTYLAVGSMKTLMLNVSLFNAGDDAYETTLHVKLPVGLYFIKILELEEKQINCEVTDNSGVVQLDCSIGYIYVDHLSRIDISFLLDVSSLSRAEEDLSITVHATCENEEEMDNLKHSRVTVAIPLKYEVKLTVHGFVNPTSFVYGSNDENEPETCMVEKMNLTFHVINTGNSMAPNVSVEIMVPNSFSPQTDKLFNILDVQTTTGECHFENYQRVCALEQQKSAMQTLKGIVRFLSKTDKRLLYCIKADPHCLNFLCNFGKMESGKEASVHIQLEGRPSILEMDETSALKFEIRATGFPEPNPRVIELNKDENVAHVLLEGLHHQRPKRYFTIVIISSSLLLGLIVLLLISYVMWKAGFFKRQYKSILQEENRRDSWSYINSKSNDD
T1 sequence (P26010 20-798): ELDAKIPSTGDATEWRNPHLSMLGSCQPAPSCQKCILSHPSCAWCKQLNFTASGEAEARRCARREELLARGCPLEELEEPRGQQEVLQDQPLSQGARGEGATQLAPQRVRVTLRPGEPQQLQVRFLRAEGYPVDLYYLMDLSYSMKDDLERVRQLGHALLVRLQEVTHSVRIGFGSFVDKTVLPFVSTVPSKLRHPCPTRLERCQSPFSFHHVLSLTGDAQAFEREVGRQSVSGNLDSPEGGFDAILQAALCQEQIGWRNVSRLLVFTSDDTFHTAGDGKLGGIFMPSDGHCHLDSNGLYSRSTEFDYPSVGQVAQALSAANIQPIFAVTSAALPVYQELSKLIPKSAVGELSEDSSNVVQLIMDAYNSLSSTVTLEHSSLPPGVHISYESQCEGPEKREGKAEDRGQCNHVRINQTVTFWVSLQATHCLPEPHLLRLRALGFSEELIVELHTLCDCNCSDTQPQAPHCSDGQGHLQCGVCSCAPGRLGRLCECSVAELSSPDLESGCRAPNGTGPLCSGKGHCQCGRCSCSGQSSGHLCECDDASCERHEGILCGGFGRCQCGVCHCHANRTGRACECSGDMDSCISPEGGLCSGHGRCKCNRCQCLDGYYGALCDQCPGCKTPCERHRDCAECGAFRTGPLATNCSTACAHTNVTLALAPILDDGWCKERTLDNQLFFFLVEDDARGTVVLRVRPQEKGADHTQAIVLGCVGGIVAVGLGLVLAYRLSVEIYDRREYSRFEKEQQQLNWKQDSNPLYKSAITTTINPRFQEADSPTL
Description: Assessment of VCAM-1/α4β7 binding antagonistic activity (RPMI-8866 cells binding to VCAM-1). The class given is cell-based. The conditions noted are these: RPMI-8866 human B lymphoma cells binding to recombinant human VCAM-1, binding buffer with 4 mM MnCl2; read-out: integrin VCAM/α4 binding antagonistic activity (IC50) α4β7. How it is done: The capacity of a test substance antagonistic to the binding of lymphoma cell strain RPMI-8866 of human B cells, known to express integrin α4β7, to VCAM-1 was determined.
(§1) 100 μl/well of a solution (500 ng/ml) of recombinant human VCAM-1 (R & D systems) solution diluted with buffer A (0.1 M NaHCO3, pH 9.6) was added to a micro titer plate having 96 wells (Nunc Maxisorp). After the incubation at 4° C. overnight, unbound VCAM-1 was removed by washing once with PBS. After completion of the washing, a buffer (buffer B) obtained by diluting Block Ace (Dainippon Pharmaceutical Co., Ltd.) with PBS to 1/4 concentration was added in an amount of 150 μl/well. After the incubation at room temperature for 1 hour, buffer B was removed and the plate was washed with PBS once.
RPMI-8866 cells were washed with DMEM twice and incubated in Dulbecco modified Eagle medium containing 10 μg/ml of Calcein-AM (Wako Pure Chemical Industries, Ltd.) (SIGMA, hereinafter referred to as “DMEM”) in dark place at 37° C. for 30 minutes to label with fluorescence. The cells were again suspended in a binding buffer (20 mM HEPES, DMEM containing 0.1% BSA) containing 4 mM of MnCl2.
(§2) 50 μl of a test substance of various concentrations obtained by the dilution with the binding buffer was added to the plate. Immediately thereafter, 50 μl (final volume: 100 μl/well) of the fluorescent RPMI-8866 cells (4×10^6 cells/ml) were added thereto, and they were incubated in dark place at room temperature for 30 minutes. After the shaking on a plate shaker (IKA MTS-4) at 800 rpm for 30 seconds, the solution was immediately removed to remove the unbound cells. The fluorescence quantity of the bound cells remaining in the wells was determined with a fluorescent plate reader (Wallac 1420 ARVO multi-label counter) (filter excitation wave length: 485 nm, emission wave length: 535 nm). The fluorescent strength thus obtained is proportional to the number of RPMI-8866 cells bound to VCAM-1 and remaining on the plate. The binding rate of each test material in various concentrations was determined while the fluorescent strength of the test material-free well was determined to be 100%.

Another test concerns the target T2, integrin α4β1 (Homo sapiens, UniProt P05556+P13612).
T2 construct: cell strain Jurkat (ATCC TIB-152) of human T cells, known to express integrin α4β1; endogenous in cells; host or cells: Jurkat (ATCC TIB-152), human T cells
Briefly: Assessment of VCAM-1/α4β1 binding antagonist activity (Jurkat cells binding to VCAM-1). Type of test: cell-based. The conditions noted are these: Jurkat human T cells binding to recombinant human VCAM-1; read-out: integrin VCAM/α4 binding antagonistic activity (IC50) α4β1. How it is done:
The capacity of a test substance antagonistic to the binding of cell strain Jurkat (ATCC TIB-152) of human T cells, known to express integrin α4β1, to VCAM-1 was determined.
as §1
Jurkat cells were washed with Dulbecco modified Eagle medium (SIGMA, hereinafter referred to as “DMEM”) twice and then incubated in DMEM containing 10 μg/ml of Calcein-AM (Wako Pure Chemical Industries, Ltd.) at 37° C. in dark place for 30 minutes to label with fluorescence. The cells were again suspended in a binding buffer (20 mM HEPES, DMEM containing 0.1% BSA).
as §2, with “Jurkat” for “RPMI-8866”

pIC50: −log10 of the molar value.

T2 sequence (P05556 21-798, one chain of several): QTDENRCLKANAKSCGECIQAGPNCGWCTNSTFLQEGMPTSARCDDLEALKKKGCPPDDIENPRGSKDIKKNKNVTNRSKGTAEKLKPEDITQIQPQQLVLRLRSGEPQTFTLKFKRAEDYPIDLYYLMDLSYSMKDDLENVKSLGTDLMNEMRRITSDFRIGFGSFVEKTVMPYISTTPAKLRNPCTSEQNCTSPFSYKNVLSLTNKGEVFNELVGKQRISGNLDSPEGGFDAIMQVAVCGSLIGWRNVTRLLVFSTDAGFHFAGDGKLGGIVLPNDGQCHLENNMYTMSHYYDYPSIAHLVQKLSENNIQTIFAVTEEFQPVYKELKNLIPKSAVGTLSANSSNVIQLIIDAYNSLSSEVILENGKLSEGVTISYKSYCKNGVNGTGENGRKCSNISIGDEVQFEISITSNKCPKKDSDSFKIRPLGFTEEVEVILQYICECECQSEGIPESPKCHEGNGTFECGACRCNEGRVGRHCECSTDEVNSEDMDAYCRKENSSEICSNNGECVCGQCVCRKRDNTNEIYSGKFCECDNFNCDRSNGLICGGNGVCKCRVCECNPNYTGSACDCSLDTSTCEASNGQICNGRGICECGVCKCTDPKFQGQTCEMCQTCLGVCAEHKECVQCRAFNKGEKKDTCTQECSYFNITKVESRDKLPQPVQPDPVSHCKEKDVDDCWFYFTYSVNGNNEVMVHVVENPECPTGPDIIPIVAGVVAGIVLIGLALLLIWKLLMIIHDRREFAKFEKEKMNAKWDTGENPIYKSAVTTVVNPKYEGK

With `Cn1c(=O)n(-c2ccc(C[C@H](NC(=O)c3c(Cl)cccc3Cl)C(=O)O)cc2)c(=O)c2cc(N3CCCC3)ccc21` [compound 110], the pIC50 is 8.39 at integrin α4β7 and 7.26 on integrin α4β1.
Taken in the same sequence, the figures for `O=C(N[C@@H](Cc1ccc(-n2c(=O)c3ccccc3n(Cc3ccc(Cl)c(Cl)c3)c2=O)cc1)C(=O)O)c1c(Cl)cccc1Cl` [compound 115] were 7.44 and 6.12.
Taken in the same sequence, the figures for `O=C(N[C@@H](Cc1ccc(-n2c(=O)c3ccccc3n(Cc3ccc(Cl)cc3Cl)c2=O)cc1)C(=O)O)c1c(Cl)cccc1Cl` [compound 116] were 7.46 and 6.35.
In the same order, the values of `Cc1ccc(Cn2c(=O)n(-c3ccc(C[C@H](NC(=O)c4c(Cl)cccc4Cl)C(=O)O)cc3)c(=O)c3ccccc32)cc1` [compound 118] are 7.80 and 6.41.
Consider `O=C(N[C@@H](Cc1ccc(-n2c(=O)c3ccccc3n(Cc3ccccc3Cl)c2=O)cc1)C(=O)O)c1c(Cl)cccc1Cl` [compound 119], for which the pIC50 at integrin α4β7 was 7.68; on integrin α4β1, 6.36.
In the same order, the values of `Cc1ccccc1Cn1c(=O)n(-c2ccc(C[C@H](NC(=O)c3c(Cl)cccc3Cl)C(=O)O)cc2)c(=O)c2ccccc21` [compound 120] are 7.62 and 6.30.
In the same order, the values of `O=C(N[C@@H](Cc1ccc(-n2c(=O)c3ccccc3n(Cc3c(F)cccc3Cl)c2=O)cc1)C(=O)O)c1c(Cl)cccc1Cl` [compound 121] are 7.85 and 6.96.
In the same order, the values of `O=C(N[C@@H](Cc1ccc(-n2c(=O)c3ccccc3n(Cc3ccccc3)c2=O)cc1)C(=O)O)c1c(Cl)cccc1Cl` [compound 122] are 9.22 and 6.51.
For the molecule `CC(C)CNc1nc2ccccc2c(=O)n1-c1ccc(C[C@H](NC(=O)c2c(Cl)cccc2Cl)C(=O)O)cc1` [compound 126], the pIC50 on integrin α4β7 is 7.15; at integrin α4β1, 5.80.
On to `CCN(C)c1nc2ccccc2c(=O)n1-c1ccc(C[C@H](NC(=O)c2c(Cl)cccc2Cl)C(=O)O)cc1` [compound 129], for which the pIC50 at integrin α4β7 is 7.12; on integrin α4β1, 5.69.
In the same order, the values of `Cn1c(=O)n(-c2ccc(C[C@H](NC(=O)c3c(Cl)cccc3C(F)(F)F)C(=O)O)cc2)c(=O)c2ccccc21` [compound 164] are 8.15 and 6.92.
In the same order, the values of `Cn1c(=O)n(-c2ccc(C[C@H](NC(=O)c3c(Cl)cccc3Br)C(=O)O)cc2)c(=O)c2ccccc21` [compound 165] are 9.22 and 7.96.
As for `Cn1c(=O)n(-c2ccc(C[C@H](NC(=O)c3c(Cl)cncc3Cl)C(=O)O)cc2)c(=O)c2ccccc21` [compound 169], the pIC50 at integrin α4β7 is 9.30; on integrin α4β1 it was 8.22.
